The values below come from patent publication US7105515B2, “Derivatives of sulphonamides, their preparation and use as medicaments” (Laboratories Del Dr. Esteve, S.A., priority 2001, dated 2006).

Structures are written as SMILES. Where a name gives a salt, the structure may show the parent alone.

By melting point is commonly meant the temperature of the solid-liquid transition. For `CCN(CC)CCc1c[nH]c2ccc(NS(=O)(=O)c3cccc4ccccc34)cc12` (as salt: HCl) [Example 3, Hydrochloride N-[3-(2-diethylaminoethyl)-1H-indol-5-yl]naphthalene-1-sulphonamide], the melting point is 255 to 257 °C.

In the case of `CN1CCC(c2c[nH]c3ccc(NS(=O)(=O)c4cccc5ccccc45)cc23)CC1` (as salt: HCl) [Example 13, N-[3-(1-methylpiperidin-4-yl)-1H-indol-5-yl]naphthalene-1-sulphonamide hydrochloride], the melting point was 212 °C (dec.).

The compound `CCN(CC)CCc1c[nH]c2ccc(NS(=O)(=O)c3sc4ccc(Cl)cc4c3C)cc12` [Example 1, N-[3-(2-diethylaminoethyl)-1H-indol-5-yl]-5-chloro-3-methylbenzo[b]thiophene-2-sulphonamide] returned a melting point of 170 to 173 °C.

As for `CCN(CC)CCc1c[nH]c2ccc(NS(=O)(=O)c3cc(Cl)cc(Cl)c3)cc12` [Example 4, N-[3-(2-diethylaminoethyl)-1H-indol-5-yl]-3,5-dichlorobenzenesulphonamide], the melting point lay in the range of 168 to 170 °C.

On to `CCN(CC)CCc1c[nH]c2ccc(NS(=O)(=O)c3ccc(-c4ccccc4)cc3)cc12` [Example 5, N-[3-(2-diethylaminoethyl)-1H-indol-5-yl]-4-phenylbenzenesulphonamide], for which the melting point was in the range of 161 to 163 °C.

For the compound `CCN(CC)CCc1c[nH]c2ccc(NS(=O)(=O)c3ccc(Cl)s3)cc12` [Example 6, N-[3-(2-diethylaminoethyl)-1H-indol-5-yl]-5-chlorothiophene-2-sulphonamide], the melting point is 180 to 181 °C.

The compound `Cc1c(S(=O)(=O)Nc2ccc3[nH]cc(CCN(C)C)c3c2)sc2ccc(Cl)cc12` [Example 7, N-[3-(2-dimethylaminoethyl)-1H-indol-5-yl]-5-chloro-3-methylbenzo[b]thiophene-2-sulphonamide] registered a melting point of 226 to 227 °C.

In the case of `CN(C)CCc1c[nH]c2ccc(NS(=O)(=O)c3cccc4ccccc34)cc12` [Example 8, N-[3-(2-dimethylaminoethyl)-1H-indol-5-yl]naphthalene-1-sulphonamide], the melting point was in the range of 203 to 205 °C.

Consider `CN1CCC(c2c[nH]c3ccc(NS(=O)(=O)c4ccc(Cl)s4)cc23)CC1` [Example 14, N-[3-(1-methylpiperidin-4-yl)-1H-indol-5-yl]-5-chlorothiophene-2-sulphonamide], for which the melting point is 284 °C (dec.).

In the case of `CN1CCC(c2c[nH]c3ccc(NS(=O)(=O)c4ccc(-c5ccccc5)cc4)cc23)CC1` [Example 15, N-[3-(1-methylpiperidin-4-yl)-1H-indol-5-yl]-4-phenylbenzenesulphonamide], the melting point was 247 to 248 °C.

With `CN1CCC(c2c[nH]c3ccc(NS(=O)(=O)c4cccc5cccnc45)cc23)CC1` [Example 16, N-[3-(1-methylpiperidin-4-yl)-1H-indol-5-yl]quinoline-8-sulphonamide], the melting point is 280 °C (dec.).

As to `CCN(CC)CCc1c[nH]c2ccc(NS(=O)(=O)c3ccc4ccccc4c3)cc12` [Example 17, N-[3-(2-diethylaminoethyl)-1H-indol-5-yl]naphthalene-2-sulphonamide], the melting point lay within 172 to 173 °C.
